Entries after “also recorded” stand apart in the source; their conditions may differ.
Legend:
nascent TF-FVIIa-FXa = target: T1, nascent TF-FVIIa-FXa (Homo sapiens, UniProt P00742); assay: FVIII activation (FVIIIa generation, WB) by nascent FXa generated by TF-FVIIa; type: biochemical; details: for effect on FVIII activation by nascent FXa generated by TF-FVIIa: therapeutic concentrations, 50-450 nM
T1 construct: purchased Haematologic Technologies (FX); Siemens Healthcare Diagnostics (rTF); FVIIa made in house
T1 sequence (P00742 41-179 limits assumed): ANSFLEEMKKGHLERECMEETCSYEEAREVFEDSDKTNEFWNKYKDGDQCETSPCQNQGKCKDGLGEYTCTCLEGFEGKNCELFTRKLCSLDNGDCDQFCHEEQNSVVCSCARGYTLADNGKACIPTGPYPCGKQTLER
T1 sequence (P00742 235-488 limits assumed): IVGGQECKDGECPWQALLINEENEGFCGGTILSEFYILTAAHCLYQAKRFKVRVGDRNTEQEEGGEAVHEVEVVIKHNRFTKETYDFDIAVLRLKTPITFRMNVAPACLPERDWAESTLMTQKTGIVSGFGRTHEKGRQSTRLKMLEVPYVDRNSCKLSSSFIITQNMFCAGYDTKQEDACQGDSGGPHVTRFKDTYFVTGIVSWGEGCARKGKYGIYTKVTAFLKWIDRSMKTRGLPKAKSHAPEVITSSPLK
Procedure: Thrombin was quantified with a fluorogenic substrate for calculation of % inhibition. […] Reactions were initiated by 100 pM FXa with 50 pM rTF as the phospholipid surface (top); or the preformed complex of 50 pM TF, 100 pM iFVIIa, 100 pM FXa, 5 nM NAPc2 (middle); or 50 pM TF/200 pM FVIIa/135 nM FX (bottom) in mixtures of 0.7 nM FVIII, 3 nM FV, 200 nM lepirudin, 10 nM TFPI, and 2.5 mM CaCl2 incubated for 120 s at 37° C. […] (n=3-4). […] Endogenous thrombin potential (ETP, right) was calculated from the area under the TG curve (n=2). Results in (E) and (F) are shown as 25th-75th percentile bars with min to max whiskers or min to max bars (when n≤3) with a line at the median. Differences were evaluated with the ANOVA/Tukey test (performed after log 10 transformation of the data shown in E); *P<0.05, ***P<0.001.
(A) WB analysis (representing 3) of the effect of anti-FVIIa MoAbs 3G12 and 12C7 (20 μg/ml) on TF-dependent FVIIIa generation after 120 s in reactions including 50 pM TF, 200 pM FVIIa, 135 nM FX, 3.5 nM FVIII, 3 nM FV and 200 nM lepirudin; quantification as in FIG. 4E. […] Reactions contained 50 pM TF, 200 pM FVIIa, 0.7 nM FVIII, 3 nM FV, 135 nM FX, 10 nM TFPI, 200 nM lepirudin and 2.5 mM CaCl2; anti-FVIIa MoAbs or control mouse IgG were at 20 μg/ml; the function-blocking anti-FVIII MoAb 8D4 was at 8 μg/ml. (C) Effect of anti-FVIIa MoAbs 3G12 and 12C7 (20 μg/ml), without or with anti-FVIII MoAb 8D4 (8 μg/ml) or anti-FXI MoAb O1A6 (20 μg/ml), on TG in normal PRP. […] Results in (B) and (D) are shown as 25th-75th percentile bars with min to max whiskers or min to max bars (when n≤3) with a line at the median. Differences were evaluated by a two-tailed t-test with Welch correction (A) or the ANOVA/Tukey test (B and D). *P<0.05, **P<0.01, ***P<0.001.
Coagulation reaction products were separated by reducing sodium dodecyl sulfate-polyacrylamide gel electrophoresis (SDS-PAGE), except for the analysis of FVIII activation in the presence of anti-FVIIa MoAbs that was performed under non-reducing conditions. After transfer to a polyvinylidene fluoride membrane, blots were probed with MoAb C5, biotinylated or not (0.5 μg/ml), for FVIII activation; MoAb AHV-5146 (1 μg/ml) for FV. Quantitative infrared detection of FVIIIa and FVa was obtained with IRDye 800CW-conjugated anti-mouse IgG or streptavidin followed by analysis with the Odyssey infrared imager (Li-COR, Lincoln, Nebr.). Concentrations were calculated by calibration with known quantities of FVIIIa and FVa.
The synthetic reaction mixtures comprised 0.7 nM FVIII, 3 nM FV, 135 nM FX, 104 prothrombin in 50 mM Tris-buffered saline, pH 7.4, with 0.1% BSA. […] Reactions to prevent thrombin effects were carried out in the presence of 200 nM lepirudin or 4 μM DAPA. Reactions were initiated by adding 0.6 to 400 pM rTF, 200 to 500 pM FVIIa or/and 10 nM FIXa, followed by 2.5 mM CaCl2 and incubation at 37° C. for the indicated times. 10 mM EDTA was then added to quench the reaction. Generation of FXa, FIIa and thrombin were evaluated by measuring amidolytic activity toward the chromogenic substrate S-2765 (180 μM; N-α-benzyloxycarbonyl-D-arginyl-L-glycyl-L-arginine-p-nitroaniline; DiaPharma, West Chester, Ohio) and the fluorogenic substrate Z-Gly-Gly-Arg-AMC (360 μM) respectively.

[1] = target: FXa generated by Russel's viper venom (RVV) FX activator (Homo sapiens, UniProt P00742); assay: FVIII activation by FXa generated by Russel's viper venom FX activator; type: biochemical
Chain of FXa generated by Russel's viper venom (RVV) FX activator (P00742 41-179 limits assumed): as the sequence (P00742 41-179 limits assumed) above
Chain of FXa generated by Russel's viper venom (RVV) FX activator (P00742 235-488 limits assumed): as the sequence (P00742 235-488 limits assumed) above
Procedure: Thrombin was quantified with a fluorogenic substrate for calculation of % inhibition. […] Reactions were initiated by 100 pM FXa with 50 pM rTF as the phospholipid surface (top); or the preformed complex of 50 pM TF, 100 pM iFVIIa, 100 pM FXa, 5 nM NAPc2 (middle); or 50 pM TF/200 pM FVIIa/135 nM FX (bottom) in mixtures of 0.7 nM FVIII, 3 nM FV, 200 nM lepirudin, 10 nM TFPI, and 2.5 mM CaCl2 incubated for 120 s at 37° C. […] Endogenous thrombin potential (ETP, right) was calculated from the area under the TG curve (n=2).
In some experiments, prothrombin was omitted from reactions and 200 nM lepirudin was added to inactivate potentially contaminating thrombin. […] A stable complex with FXa as the only active protease was prepared with 50 pM rTF, 100 pM FVIIa-S195A (iFVIIa), 100 pM FXa and 5 nM NAPc2 incubated for 120 s at 37° C. FVIII activation by this complex was examined in reactions including FVIII, FV and lepirudin incubated for 120 s.

[2] = test system: fibrillar collagen type I; assay: Blood perfusion over fibrillar collagen type I, volume of platelet aggregates and fibrin; type: cell-based, human; details: blood of treated patients, collagen surface
Procedure: The volume of platelet aggregates and deposited fibrin was measured by confocal microscopy. Statistical analysis by one-way ANOVA and Tukey post-test. *P<0.05; **P<0.01; ***P<0.001.
Glass coverslips treated with 0.2 mg/ml poly-L-lysine for 6 h at 37° C. were coated with rTF for 18-20 hours at 37° C. or 2.5 mg/ml acid-insoluble type I collagen for 2 hours at 22-25° C. Then they were rinsed with pH 7.4 buffered-saline, assembled in a rectangular flow chamber with a 125 μm-high silicon gasket and positioned on a confocal microscope stage for analysis. Venous blood for testing was collected into final 10.9 mM trisodium citrate using a plastic syringe for normal volunteers or Vacutainer tubes (Becton Dickinson, Buccinasco, Milan) for patients and controls. Before perfusion at a flow rate yielding an initial wall shear rate of 300 s^−1 maintained with a syringe pump (Harvard Apparatus, Holliston, Mass.), CaCl2 was added to obtain 1.29 mM Ca^2+. In the blood of patients—potentially hypercoagulable—and related controls, lepirudin (50 nM) was also added to neutralize thrombin possibly generated before testing. […] For experiments with WT and mutant FVIIa, cells from group O citrated blood, containing 50 μg/ml CTI and 10 U/ml (ADPase activity) apyrase, were washed free of plasma by sequential centrifugation steps at 1500 g for 7 min. After the first, plasma was replaced with an equal volume of calcium-free Tyrode buffer, pH 6.5, with 5 U/ml apyrase; then with buffer and 1.25 U/ml apyrase; and finally with human FVII deficient plasma (George King Bio-Medical, Overland Park, Kans.) up to the original blood volume. […] Experiments in Milan (Italy) were performed with a Leica TCS SP5 microscope and HCX PL APO 63x/1.40 NA oil immersion objective (Leica Microsystems GmbH, Wetzlar, Germany); in La Jolla (California) with a Zeiss Axiovert 135M/LSM 410 and Plan-Apochromat 40x/1.40 NA oil immersion objective (Carl Zeiss AG, Oberkochen, Germany).
Platelets adhering and aggregating onto the surface were visualized by adding quinacrine-HCl (mepacrine; 10 μg/ml; Sigma-Aldrich) to blood. Deposited fibrin was visualized with Alexa Fluor 546-labeled (Invitrogen) mouse monoclonal IgG (50 μg/ml) specific for the B chain of mouse and human fibrin (HB-8545; ATCC). […] This was followed by buffer (DMEM) for 2 minutes to facilitate fibrin quantification by confocal z section analysis using a Zeiss Axiovert 135M/LSM 410 microscope (Carl Zeiss) and Plan-Apochromat×63/1.40 NA oil immersion objective. […] Deposited fibrin volume was measured from confocal sections collected at 4 preset positions in the flow chamber. Total volume of deposited platelets and fibrin was calculated from the sum of the respective area coverage per section multiplied by the z interval (2 μm). […]

immobilized rTF = assay: Blood perfusion over immobilized rTF, volume of platelet aggregates and fibrin; type: cell-based, human
Procedure: Glass coverslips treated with 0.2 mg/ml poly-L-lysine for 6 h at 37° C. were coated with rTF for 18-20 hours at 37° C. or 2.5 mg/ml acid-insoluble type I collagen for 2 hours at 22-25° C. Then they were rinsed with pH 7.4 buffered-saline, assembled in a rectangular flow chamber with a 125 μm-high silicon gasket and positioned on a confocal microscope stage for analysis. Venous blood for testing was collected into final 10.9 mM trisodium citrate using a plastic syringe for normal volunteers or Vacutainer tubes (Becton Dickinson, Buccinasco, Milan) for patients and controls. Before perfusion at a flow rate yielding an initial wall shear rate of 300 s^−1 maintained with a syringe pump (Harvard Apparatus, Holliston, Mass.), CaCl2 was added to obtain 1.29 mM Ca^2+. In the blood of patients—potentially hypercoagulable—and related controls, lepirudin (50 nM) was also added to neutralize thrombin possibly generated before testing. […] For experiments with WT and mutant FVIIa, cells from group O citrated blood, containing 50 μg/ml CTI and 10 U/ml (ADPase activity) apyrase, were washed free of plasma by sequential centrifugation steps at 1500 g for 7 min. After the first, plasma was replaced with an equal volume of calcium-free Tyrode buffer, pH 6.5, with 5 U/ml apyrase; then with buffer and 1.25 U/ml apyrase; and finally with human FVII deficient plasma (George King Bio-Medical, Overland Park, Kans.) up to the original blood volume. Cell count results in reconstituted and native blood were within 90%. Experiments in Milan (Italy) were performed with a Leica TCS SP5 microscope and HCX PL APO 63x/1.40 NA oil immersion objective (Leica Microsystems GmbH, Wetzlar, Germany); in La Jolla (California) with a Zeiss Axiovert 135M/LSM 410 and Plan-Apochromat 40x/1.40 NA oil immersion objective (Carl Zeiss AG, Oberkochen, Germany).
Platelets adhering and aggregating onto the surface were visualized by adding quinacrine-HCl (mepacrine; 10 μg/ml; Sigma-Aldrich) to blood. Deposited fibrin was visualized with Alexa Fluor 546-labeled (Invitrogen) mouse monoclonal IgG (50 μg/ml) specific for the B chain of mouse and human fibrin (HB-8545; ATCC). Blood was perfused for 3-5 min at 37° C. with a syringe pump (Harvard Apparatus Inc.) at a flow rate yielding an initial (in the unobstructed flow path) wall shear rate of 300 s^−1. This was followed by buffer (DMEM) for 2 minutes to facilitate fibrin quantification by confocal z section analysis using a Zeiss Axiovert 135M/LSM 410 microscope (Carl Zeiss) and Plan-Apochromat×63/1.40 NA oil immersion objective. Image analysis was performed with NIH ImageJ64. Deposited fibrin volume was measured from confocal sections collected at 4 preset positions in the flow chamber. Total volume of deposited platelets and fibrin was calculated from the sum of the respective area coverage per section multiplied by the z interval (2 μm). All studies involving human subjects were conducted following institutionally approved protocols.
TF-coated glass coverslips were perfused with venous blood at a wall shear rate of 300 s^−1. A Zeiss Axiovert 135M/LSM 410 and Plan-Apochromat 40x/1.40 NA oil immersion objective (Carl Zeiss AG, Oberkochen, Germany) was used to visualize platelets/leukocytes and fibrin stained with mepacrine and a specific anti-body, respectively. Image analysis to calculate volumes was performed as described herein.
Glass coverslips treated with 0.2 mg/ml poly-L-lysine for 6 h at 37° C. were coated with rTF for 18-20 hours at 37° C., rinsed with buffered-saline and assembled in a rectangular flow chamber with a 125 μm-high silicon gasket. Venous blood was collected into final 10.9 mM trisodium citrate using a plastic syringe. CaCl2 was added to obtain 1.29 mM Ca^2+ before perfusion at a wall shear rate of 300 s-1 maintained with a syringe pump (Harvard Apparatus, Holliston, Mass.). […]

FXa WT = target: T2, FXa WT (Homo sapiens, UniProt P00742); assay: FVIIIa generation by FXa WT in stable complex with TF-iFVIIa-NAPc2; type: biochemical; details: 1 nM rivaroxaban
T2 construct: TF-associated FVIIa has converted FX into FXa active protease
T2 sequence (P00742 41-179 limits assumed): as the sequence (P00742 41-179 limits assumed) above
T2 sequence (P00742 235-488 limits assumed): as the sequence (P00742 235-488 limits assumed) above

Structure (SMILES): O=C(NC[C@H]1CN(c2ccc(N3CCOCC3=O)cc2)C(=O)O1)c1ccc(Cl)s1 [Rivaroxaban]
- FVIIIa generation (nascent TF-FVIIa-FXa; 500 nM rivaroxaban): sustained
- FVIIIa generation, coagulation initiated by FVIIa (nascent TF-FVIIa-FXa; TFPI and rivaroxaban combined, rivaroxaban as high as 450 nM, lepirudin present): substantial FVIIIa generation
- effect on FVIII activation by nascent FXa generated by TF-FVIIa (nascent TF-FVIIa-FXa): only marginally affected
- effect on FVIII activation by nascent FXa generated by TF-FVIIa (nascent TF-FVIIa-FXa; listed as rivaroxaban): minimally affected; also recorded: only marginally reduced
- FVIIIa generation, initiator RVV-X ([1]; TFPI and rivaroxaban combined, rivaroxaban as high as 450 nM): substantial inhibition
- effect on FVIII activation by RVV-generated FXa ([1]; equivalent FXa levels as with TF-FVIIa): inhibited
- mean volume of platelet aggregates vs controls [2]: not significantly different
- volume of deposited fibrin vs controls [2]: not significantly decreased; also recorded: not significantly different from normal
- fibrin deposition (immobilized rTF; blood of treated patients, high density TF surface): as low as in warfarin treated patients
- volume of deposited fibrin (immobilized rTF; blood of treated patients, higher rTF coating concentration, 300 s^-1, 5 min): significantly greater; also recorded: fibrin formation in the normal range
- volume of deposited fibrin vs untreated controls (immobilized rTF; blood of treated patients, lower rTF coating concentration, 300 s^-1, 5 min): markedly smaller
- volume of platelet aggregates vs controls (immobilized rTF; blood of treated patients, rTF coating 20 and 40 pM): non significantly different from controls
- fibrin volume (immobilized rTF; rivaroxaban added to normal blood in vitro at the concentration measured in treated patients): reduced fibrin volume partially
- effect on FVIII activation by FXa WT (FXa WT): almost completely inhibited

Reference: patent publication US11136370B2, “Compositions and methods for thrombin generation assay” (The Scripps Research Institute, priority 2016, dated 2021)
